pIC50: −log10 of the molar value.
Assays:
[1] = target: T1, 5-hydroxytryptamine receptor 1D (Homo sapiens, UniProt P28221); assay: Ability to displace [3H]-5-HT from recombinant human 5-hydroxytryptamine 1D receptor stably expressed in CHO cells determined in vitro; type: cell-based
[2] = target: T1, 5-hydroxytryptamine receptor 1D; assay: Measurement of agonist-induced [35S]-GTP gamma-S binding in CHO cells stably transfected with 5-hydroxytryptamine 1D receptor; type: functional, cell-based
[3] = target: T1, 5-hydroxytryptamine receptor 1D; assay: Maximum stimulation of [35S]GTP gamma-S binding expressed relative to the maximal effect produced by 5-hydroxytryptamine 1D receptor; type: functional
[4] = target: 5-hydroxytryptamine receptor 1B (Homo sapiens, UniProt P28222); assay: Ability to displace [3H]5-HT from recombinant human 5-hydroxytryptamine 1B receptor stably expressed in CHO cells determined in vitro; type: cell-based
[5] = target: Serotonin 1 receptors; 5-HT1B & 5-HT1D (Homo sapiens) (UniProt P28222+P28221); assay: Binding selectivity for h5-HT1D receptor to that of h5-HT1B receptor; type: protein assay

T1 sequence (P28221 whole entry): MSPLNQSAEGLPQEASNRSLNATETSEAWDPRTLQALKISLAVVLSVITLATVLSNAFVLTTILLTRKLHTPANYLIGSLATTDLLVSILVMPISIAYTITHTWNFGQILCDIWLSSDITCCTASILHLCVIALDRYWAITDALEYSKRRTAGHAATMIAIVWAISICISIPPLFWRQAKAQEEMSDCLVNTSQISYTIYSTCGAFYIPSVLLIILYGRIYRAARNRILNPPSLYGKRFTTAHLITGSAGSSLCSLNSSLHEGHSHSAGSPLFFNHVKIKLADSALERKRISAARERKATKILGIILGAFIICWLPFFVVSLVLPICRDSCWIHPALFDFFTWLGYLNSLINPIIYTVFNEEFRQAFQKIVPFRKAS
Sequence of 5-hydroxytryptamine receptor 1B (P28222 whole entry): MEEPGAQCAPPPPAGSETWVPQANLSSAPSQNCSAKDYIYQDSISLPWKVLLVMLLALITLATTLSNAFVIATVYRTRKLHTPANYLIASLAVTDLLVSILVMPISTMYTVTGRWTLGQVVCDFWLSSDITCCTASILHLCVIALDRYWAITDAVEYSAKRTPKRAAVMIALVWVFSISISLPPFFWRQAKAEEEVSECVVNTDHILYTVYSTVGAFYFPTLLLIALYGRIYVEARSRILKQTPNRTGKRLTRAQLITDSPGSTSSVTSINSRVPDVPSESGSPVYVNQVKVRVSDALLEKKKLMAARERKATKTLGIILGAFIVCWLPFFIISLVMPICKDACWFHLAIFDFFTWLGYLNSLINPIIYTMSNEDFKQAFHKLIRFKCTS

Row | SMILES | pIC50 [1] | ED50 [2] [nM] | Activity [3] [%] | pIC50 [4] | Ratio [5]
1 | OC1(Cc2ccccc2)CCN(CCCc2c[nH]c3ccc(-n4cnnc4)cc23)CC1 | 10.00 | 0.25 | 64 | 7.49 | 251
2 | Cc1ccccc1CNCC1(O)CCN(CCCc2c[nH]c3ccc(-n4cnnc4)cc23)CC1 | 8.40 | – | – | 7.08 | 21
3 | CN(CC1CCCCC1)CC1(O)CCN(CCCc2c[nH]c3ccc(-n4cnnc4)cc23)CC1 | 8.92 | 1.4 | 69 | 7.57 | 22
4 | OC1(CNCc2ccccn2)CCN(CCCc2c[nH]c3ccc(-n4cnnc4)cc23)CC1 | 8.49 | 3.2 | 96 | 7.26 | 17
5 | CC(C)CN(C)CC1(O)CCN(CCCc2c[nH]c3ccc(-n4cnnc4)cc23)CC1 | 9.19 | 1.7 | 95 | 7.52 | 47
6 | CC1(C)CCCN(CC2(O)CCN(CCCc3c[nH]c4ccc(-n5cnnc5)cc34)CC2)C1 | 9.19 | 0.9 | 67 | 7.72 | 29
7 | CN(CC(C)(C)C)CC1(O)CCN(CCCc2c[nH]c3ccc(-n4cnnc4)cc23)CC1 | 8.74 | 1.6 | 60 | 7.21 | 34
8 | CC(C)(C)CNCC1(O)CCN(CCCc2c[nH]c3ccc(-n4cnnc4)cc23)CC1 | 8.14 | – | – | 7.07 | 12
9 | OC1(CNCc2ccccc2)CCN(CCCc2c[nH]c3ccc(-n4cnnc4)cc23)CC1 | 9.35 | 2.2 | 79 | 7.33 | 106
10 | CC(C)(C)OC(=O)NCC1(O)CCN(CCCc2c[nH]c3ccc(-n4cnnc4)cc23)CC1 | 7.68 | 9.7 | 86 | 6.47 | 16
11 | CN(Cc1ccccc1)CC1(O)CCN(CCCc2c[nH]c3ccc(-n4cnnc4)cc23)CC1 | 8.92 | 3.8 | 91 | 7.02 | 80
12 | Cc1ccccc1CN(C)CC1(O)CCN(CCCc2c[nH]c3ccc(-n4cnnc4)cc23)CC1 | 8.89 | 3.7 | 90 | 7.05 | 68
13 | CC(=O)Nc1ccc(CNCC2(O)CCN(CCCc3c[nH]c4ccc(-n5cnnc5)cc34)CC2)cc1 | 7.96 | 14 | 102 | 7.52 | 3
14 | CN(CC1CC1)CC1(O)CCN(CCCc2c[nH]c3ccc(-n4cnnc4)cc23)CC1 | 8.87 | 1.1 | 79 | 7.57 | 20
15 | OC1(CNCC2CC2)CCN(CCCc2c[nH]c3ccc(-n4cnnc4)cc23)CC1 | 8.35 | – | – | 7.24 | 13

Reference: ChEMBL document CHEMBL1131900, “4-Hydroxy-1-[3-(5-(1,2,4-triazol-4-yl)-1H-indol-3-yl)propyl]piperidines: selective h5-HT1D agonists for the treatment of migraine” (Bioorg Med Chem Lett, 1999)
